Reference: article PMC6378327, “Modes of Accessing Bicarbonate for the Regulation of Membrane Guanylate Cyclase (ROS-GC) in Retinal Rods and Cones” (eNeuro, 2019)

Target: T1, ROS-GC1 (Bos taurus, UniProt P55203)
T1 construct: gene GUCY2D; core catalytic domain, G817-Y965 (numbering for mature protein), homodimer
Test: activation of purified recombinant core catalytic domain by […] bicarbonate, cGMP radioimmunoassay
Format: biochemical
Conditions: 30000 µM

T1 sequence (P55203 873-1021): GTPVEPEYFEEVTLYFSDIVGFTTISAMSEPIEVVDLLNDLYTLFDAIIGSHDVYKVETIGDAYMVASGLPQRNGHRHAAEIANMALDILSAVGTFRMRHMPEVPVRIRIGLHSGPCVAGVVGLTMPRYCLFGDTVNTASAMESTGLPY

O=C(O)O [bicarbonate]
activation of purified recombinant core catalytic domain by 30 mM bicarbonate, c: 3.4 fold activity at 30 mM
